Experimental data taken from PubChem BioAssay (NCI).
Where “and” joins values, the source holds several entries; their conditions need not be identical. Equal entries are not always repeated.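 Compound exposure: 48 hours, 5 concentrations, 96-well plates. GI50: concentration for 50% inhibition of growth. The concentration for full growth arrest is given as TGI.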

Experiments:
Test in all cases: growth of human tumour cells (NCI), 48 h
NCI-H226 lung = system: NCI-H226 lung
UACC-257 melanoma = system: UACC-257 melanoma
OVCAR-8 ovarian = system: OVCAR-8 ovarian
PC-3 prostate = system: PC-3 prostate
OVCAR-5 ovarian = system: OVCAR-5 ovarian
SN12C renal = system: SN12C renal
SNB-75 CNS = system: SNB-75 CNS
HCC-2998 colon = system: HCC-2998 colon
NCI-H460 lung = system: NCI-H460 lung
HOP-62 NSCLC = system: HOP-62 NSCLC

| Structure (SMILES) | GI50 (NCI-H226 lung) | TGI (NCI-H226 lung) | GI50 (UACC-257 melanoma) | TGI (UACC-257 melanoma) | GI50 (OVCAR-8 ovarian) | TGI (OVCAR-8 ovarian) | GI50 (PC-3 prostate) | TGI (PC-3 prostate) | GI50 (OVCAR-5 ovarian) | TGI (OVCAR-5 ovarian) | GI50 (SN12C renal) | TGI (SN12C renal) | GI50 (SNB-75 CNS) | TGI (SNB-75 CNS) | GI50 (HCC-2998 colon) | TGI (HCC-2998 colon) | GI50 (NCI-H460 lung) | TGI (NCI-H460 lung) | TGI (HOP-62 NSCLC) | GI50 (HOP-62 NSCLC) |
| --- | --- | --- | --- | --- | --- | --- | --- | --- | --- | --- | --- | --- | --- | --- | --- | --- | --- | --- | --- | --- |
| COc1cccc2cc(N(C)c3nc(C)nc4ccsc34)ccc12 | < 0.015 µM | 19.8 µM | 10.8 µM | 27 µM | < 0.01 µM | 38.5 µM | < 0.01 µM | 15.1 µM | < 0.01 µM | 17.4 µM | < 0.01 µM | 15 µM | < 0.01 µM | 5.3 µM | < 0.01 µM | 8.01 µM | < 0.01 µM | 10.9 µM | 18.9 µM | – |
| CO[C@H]1/C=C/C[C@H](C)[C@@H](C)S(=O)(=O)NC(=O)c2ccc3c(c2)N(C[C@@H]2CC[C@H]21)C[C@@]1(CCCc2cc(Cl)ccc21)CO3 | 2.66 µM | 7.4 µM | 2.99 µM | 9.69 µM | 3.72 µM | 14.4 µM | 1.98 µM | 6.23 µM | 2.91 µM | 11.9 µM | 2.37 µM | 6.63 µM | 1.34 µM | 3.03 µM | 1.65 µM | 3.45 µM | 1.99 µM | 4.17 µM | 6.2 µM | 2.35 µM |
| C=C1C(=O)O[C@H]2[C@H]1CC/C(COC(=O)NCc1cccc(OC)c1)=C\CC[C@@]1(C)O[C@@H]21 | 12.1 µM | 27.8 µM | 1.96 µM | 5.79 µM | 2.03 µM | 5.63 µM | 2.26 µM | 6.07 µM | 2.17 µM | 5.04 µM | 1.77 µM | 4.4 µM | 12.2 µM | 24.7 µM | 15.3 µM | 31.1 µM | 3.3 µM | 13.4 µM | 28.3 µM | 13.2 µM |
| Cc1cccc2cc3ccc4ccccc4c3cc12 | – | > 100 µM | – | 53 µM | – | > 100 µM | – | > 100 µM | – | > 100 µM | – | > 100 µM | – | > 100 µM | – | 46.7 µM | – | 83.2 µM | > 100 µM | – |
| CN1CCN(c2ccc([N+](=O)[O-])c3no[n+]([O-])c23)CC1 | 0.697 µM | 3.39 µM and 2.16 µM | 0.472 µM | 2.69 µM and 1.6 µM | 0.145 µM | 1.75 µM and 0.34 µM | 0.412 µM | 2.21 µM and 1.94 µM | 1.49 µM | 4.25 µM and 3.27 µM | 0.357 µM | 1.29 µM and 1.37 µM | 0.175 µM | – | 1.32 µM | 2.73 µM | 0.118 µM | 1.17 µM and 0.764 µM | 1.26 µM and 1.39 µM | 0.318 µM |
| C[C@@H]1CCC2[C@@H](C)[C@H](OC(=O)CCC(=O)NCCNC(=O)Cc3cc(=O)oc4cc(N(C)C)ccc34)O[C@@H]3O[C@]4(C)CC[C@@H]1C23OO4 (stereo not given in full) | 7.81 µM | 35.2 µM | 4.04 µM | > 100 µM | 0.906 µM | > 47.8 µM | 0.189 µM | > 100 µM | 1.28 µM | > 76.9 µM | 4.04 µM | > 100 µM | 8.22 µM | 29.2 µM | 6.85 µM | > 100 µM | 2.43 µM | 19.2 µM | > 62 µM | 12.5 µM |
| COc1cc2c(cc1-c1c(C)noc1C)ncc1[nH]c(=O)n([C@H](C)c3ccccn3)c12 | 12.1 µM | > 100 µM | 0.415 µM | > 100 µM | 3.54 µM | > 100 µM | 2.72 µM | > 100 µM | 22.4 µM | > 100 µM | 4.48 µM | > 100 µM | < 0.0379 µM | > 43.7 µM | 2.5 µM | 17.8 µM | 11.2 µM | > 100 µM | > 100 µM | 0.94 µM |
| CC(C)c1ccc(O)c(O)c(=O)c1 (tested in a mixture with another compound) | – | > 23.4 µM | – | 2.03 µM | – | > 100 µM | – | 15.6 µM | – | > 100 µM | – | > 100 µM | – | 22.8 µM | – | 4.04 µM | – | 0.899 µM | > 100 µM | – |
| C=C(C)C1CCC2(CO)C(O)CC3(C)C(CCC4C5(C)CCC(O)C(C)(C)C5CCC43C)C12 (stereo not given) | – | > 100 µM | – | 24.9 µM | – | 20.7 µM | – | 60.3 µM | – | > 100 µM | – | > 100 µM | – | 9.5 µM | – | – | – | 64.3 µM | 27 µM | – |
| O=C1C(Nc2cccc(O)c2)=C(Sc2ccc(Cl)cc2)C(=O)N1Cc1ccccc1 | 32.6 µM | > 100 µM | – | – | 6.03 µM | 34.8 µM | 4.66 µM | 24.7 µM | 21.1 µM | 55 µM | 15.8 µM | 55.1 µM | – | – | 2.94 µM | 7.23 µM | 5.61 µM | > 100 µM | 35.7 µM | 15.8 µM |
| CCCCCC/C=C\CCCCCCCCCc1c(O)c(OC)cc(O)c1CN(C)C | – | 36.7 µM | – | 29.3 µM | – | 23.8 µM | – | 14.5 µM | – | 29.6 µM | – | 20.7 µM | – | 13.8 µM | – | – | – | 15.2 µM | 28.9 µM | – |
| CC1CCC(C#N)(NOC2=NCCN2)CC1 (stereo not given) | 15.2 µM | 34.1 µM | > 100 µM | > 100 µM | 29.2 µM | > 100 µM | > 100 µM | > 100 µM | > 100 µM | > 100 µM | 36.2 µM | > 100 µM | > 100 µM | > 100 µM | – | – | 37.7 µM | > 100 µM | – | – |
| CC(C)[C@H](O)C(=O)N[C@H]1Cc2ccc3c(c2)[C@]24C5=C(N=C(O5)[C@H](C(C)C)NC1=O)c1nc(Cl)c(o1)-c1c(Cl)[nH]c5cccc(c15)-c1cccc2c1N[C@H]4O3 | – | 0.0273 µM | < 0.001 µM | 3.27 µM | – | – | < 0.001 µM | > 10 µM | 4.26 µM | > 10 µM | – | – | – | – | < 0.001 µM | – | < 0.001 µM | 1.21 µM | > 10 µM | – |
| CO[C@@]12[C@H](COC(N)=O)C3=C(C(=O)C(C)=C(N)C3=O)N1C[C@@H]1N[C@@H]12 | 1.35 µM and 1.45 µM | 3.95 µM and 7.99 µM and 8.8 µM | 2.16 µM | 5.17 µM and 7.79 µM and 11.2 µM | 1.52 µM and 0.925 µM | – | 2.65 µM and 4.99 µM | 17.4 µM and 20 µM and 25.7 µM | 2.69 µM and 1.65 µM | 9.29 µM and 10.5 µM and 14 µM | 0.995 µM | 9.59 µM and 25 µM and 30.8 µM | – | – | 1.14 µM | 2.88 µM and 2.98 µM and 3.91 µM | – | 1.03 µM and 1.48 µM | – | 0.643 µM |
| C=CC1=C(C)C(Cc2[nH]c(/C=c3\[nH]/c(=C/C4=NC(=O)C(C)/C4=C\C)c(C)c3CCC(=O)O)c(CCC(=O)OC)c2C)NC1=O (stereo not given) | – | – | 7.9 µM | 41.1 µM | 34.9 µM | > 100 µM | 32.9 µM | > 100 µM | 37.6 µM | > 100 µM | 22.2 µM | 44.6 µM | – | – | 26.7 µM | 67.1 µM | 21.7 µM | > 100 µM | 62.4 µM | 26.4 µM |
